Measurements: patent publication US12263248B2, “Compounds and compositions for intracellular delivery of therapeutic agents” (ModernaTX, Inc., priority 2018, dated 2025)

Tests used:
[1] = Encapsulation efficiency of RNA (QUANT-IT RIBOGREEN RNA assay); type: physicochemical; conditions: Table 1A
Method: For nanoparticle compositions including an RNA, a QUANT-IT™ RIBOGREEN® RNA assay (Invitrogen Corporation Carlsbad, CA) can be used to evaluate the encapsulation of an RNA by the nanoparticle composition. The samples are diluted to a concentration of approximately […] in a TE buffer solution (10 mM Tris-HCl, 1 mM EDTA, pH 7.5). 50 μL of the diluted samples are transferred to a polystyrene 96 well plate and either 50 μL of TE buffer or 50 μL of a 2% Triton X-100 solution is added to the wells. The plate is incubated at a temperature of 37° C. for 15 minutes. The RIBOGREEN® reagent is diluted 1:100 in TE buffer, and 100 μL of this solution is added to each well. The fluorescence intensity can be measured using a fluorescence plate reader (Wallac Victor 1420 Multilabel Counter; Perkin Elmer, Waltham, MA) at an excitation wavelength of, for example, about 480 nm and an emission wavelength of, for example, about 520 nm. The fluorescence values of the reagent blank are subtracted from that of each of the samples and the percentage of free RNA is determined by dividing the fluorescence intensity of the intact sample (without addition of Triton X-100) by the fluorescence value of the disrupted sample (caused by the addition of Triton X-100).

[2] = system: luciferase (Luc) mRNA; test: Luc expression, whole body bioluminescence after intravenous administration to mice; type: in vivo; conditions: for Lipid/MC3 AUC / AUC (p/s * h): Table 3D, intravenous; for Total Flux 3 hours / Total Flux 6 hours / Total Flux 24 hours: Luc mRNA; for Fold increase in total body Luc Flux relative to MC3 at 6 h: Table 3A
Method: In order to monitor how effectively various nanoparticle compositions deliver therapeutic and/or prophylactics to targeted cells, different nanoparticle compositions including a particular therapeutic and/or prophylactic (for example, a modified or naturally occurring RNA such as an mRNA) are prepared and administered to rodent populations. Mice are intravenously, intramuscularly, intraarterially, or intratumorally administered a single dose including a nanoparticle composition with a formulation such as those provided in Example 3. In some instances, mice may be made to inhale doses. Dose sizes may range from 0.001 mg/kg to 10 mg/kg, where 10 mg/kg describes a dose including 10 mg of a therapeutic and/or prophylactic in a nanoparticle composition for each 1 kg of body mass of the mouse. A control composition including PBS may also be employed.
Upon administration of nanoparticle compositions to mice, dose delivery profiles, dose responses, and toxicity of particular formulations and doses thereof can be measured by enzyme-linked immunosorbent assays (ELISA), bioluminescent imaging, or other methods. For nanoparticle compositions including mRNA, time courses of protein expression can also be evaluated. Samples collected from the rodents for evaluation may include blood, sera, and tissue (for example, muscle tissue from the site of an intramuscular injection and internal tissue); sample collection may involve sacrifice of the animals.
The efficacy of the nanoparticle compositions presented in Table 1A was evaluated with a bioluminescence study. Formulations were administered intravenously to mice (n=6) at a dosage of 0.5 mg/kg (mpk) and bioluminescence measured at 3, 6, and 24 hour time points. The standard MC3 formulation and, in some instances, a control (e.g., a PBS control) were evaluated for comparison. […] In general, flux decreased as time progressed to less than 10% of the initial flux.
(§1) Whole body and ex vivo organ bioluminescent imaging of mice: CD-1 mice were injected 15 minutes prior to the imaging timepoint intraperitoneally (IP) with 200 μL Xenolight D-luciferin K+ salt, diluted in PBS just prior to use to a concentration of 15 mg/mL. Ex vivo imaging of organs was completed within 25 minutes of luciferin administration. All images were quantified by region of interest for total flux.

[3] = system: luciferase (Luc) mRNA; test: Luc expression in liver, lung, spleen and femur 6 hours after intravenous administration; type: in vivo; conditions: mice, 0.5 mpk; for Total Flux Liver / Total Flux Lung / Total Flux Spleen: intravenous; for Flux in the spleen: i.v., in words
Method: The efficacy of the nanoparticle compositions presented in Table 1A was further evaluated by measuring the expression of modified luciferase in the liver, lung, spleen, and femur upon administration of a given composition. Formulations were administered intravenously to mice (n=3) at a dosage of 0.5 mpk and bioluminescence measured after 6 hours. The standard MC3 formulation and a PBS control were also tested. […] Flux in the liver was lowest for compositions including Compounds 58, 59, 137, and 141. Flux in the spleen was highest for compositions including Compounds 4, 7, 33, 34, 48, 53, 108, 129, 130, and 148, and lowest for compositions including Compounds 9, 59, 124, and 141.
as §1

[4] = Particle size and polydispersity index of nanoparticle compositions (Zetasizer Nano ZS); type: physicochemical; conditions: Table 1A; for Size (nm): lipid:DSPC:cholesterol:PEG-DMG 50:10:38.5:1.5 mol %
Method: A Zetasizer Nano ZS (Malvern Instruments Ltd, Malvern, Worcestershire, UK) can be used to determine the particle size, the polydispersity index (PDI) and the zeta potential of the nanoparticle compositions in 1×PBS in determining particle size and 15 mM PBS in determining zeta potential.

[5] = Apparent (surface) pKa of the LNP formulation (TNS assay); type: physicochemical; conditions: Table 1A
Method: Using sodium hydroxide (1 M) and hydrochloric acid (1 M), 21 unique buffers were prepared from the master buffer stock at pH values between about 3 and 12. Next, a stock of 300 μM 6-(p-Toluidino)-2-naphthalenesulfonic acid sodium salt (TNS reagent) in DMSO was prepared and the LNP was mixed with the desired formulation buffer at a concentration of 0.04 mg/mL mRNA. This assay has been validated in 1× PBS and 20 mM Tris w/8% sucrose buffer. The buffer solutions at various pH values were added to a 96-well plate in triplicate for each pH. To each well was added 3.26 μL of LNP sample at a mRNA concentration of 0.04 mg/mL and 2.0 μL of 300 μM TNS reagent solution. After careful mixing, the resulting fluorescence values were read for each plate to create a sigmoidal plot of the fluorescence values vs. buffer pH. The […] inflection point of this curve is the apparent pKa of the LNP formulation.

Compound | EE (%) [1] | Lipid/MC3 AUC [2] | AUC (p/s * h) ([2]; Luc) | Total Flux 3 hours ([2]; mice, i.v., 0.5 mg/kg) | Total Flux 6 hours ([2]; mice, i.v., 0.5 mg/kg) | Total Flux 24 hours ([2]; mice, i.v., 0.5 mg/kg) | Total Flux Liver [3] | Total Flux Lung [3] | Total Flux Spleen [3] | PDI [4] | Size (nm) [4] | pKa [5] | Fold increase in total body Luc Flux relative to MC3 at 6 h ([2]; i.v. administration) | flux at all timepoints measured ([2]; mice, i.v., 0.5 mg/kg, 3, 6 and 24 hour, in words) | Flux in the spleen [3] | 6 h Lipid/MC3 Avg. Luc Expression ([2]; Table 3C, i.v. administration) | Fold increase AUC Lipid/MC3 ([2]; Table 3C, i.v. administration) | AUC (h * p/s) ([2]; Table 3C, i.v. administration, Luc)
CCCCCCCCC(CCCCCCCC)OC(=O)CCCCCCCN(C)CCCCCCCCCC(=O)OCCCCCCC [Compound 149, Heptyl 10-((8-(heptadecan-9-yloxy)-8-oxooctyl)(methyl)amino)decanoate] | 98.00% | 0.55 | 1.057E+011 p/s * h | 1.01E+10 | 8.33E+09 | 3.45E+08 | 1.11E+09 | 2.69E+06 | 2.71E+07 | 0.110 | 62.1 nm | 6.284 | – | – | – | – | – | –
CCCCCCCCCOC(=O)CCCCCCCN(CCO)CCCCCCCCCOP(=O)(OCCCCCCCCC)OCCCCCCCCC [Compound 127, Nonyl 8-((9-((bis(nonyloxy)phosphoryl)oxy)nonyl)(2-hydroxyethyl)amino)octanoate] | 89.5% | – | – | 3.81E+09 | 2.09E+09 | 4.56E+08 | 1.94E+08 | 5.26E+06 | 3.21E+08 | 0.19 | 110.4 nm | 6.98 | 0.094 | – | – | – | – | –
CCCCCCCCCOC(=O)CCCCCCCN(CCO)CCCCCCCC(=O)OC(C)(C)C [Compound 158, tert-Butyl 8-((2-hydroxyethyl)(8-(nonyloxy)-8-oxooctyl)amino)octanoate] | 35.70% | <0.01 | 1.211E+007 p/s * h | 2.69E+05 | 9.82E+05 | 1.55E+05 | 1.99E+05 | 1.71E+04 | 1.17E+05 | 0.080 | 251.8 nm | 6.953 | – | significantly lower flux | – | – | – | –
CCCCCCCCCOC(=O)CCCCCCCN(CCO)CCCCCCCC(=O)OC1CCC(CCCCC)CC1 (centres unmarked) [Compound 79, Nonyl 8-((2-hydroxyethyl)(8-oxo-8-((4-pentylcyclohexyl)oxy)octyl)amino)octanoate] | 89.1% | – | – | 3.23E+08 | 5.27E+08 | 3.08E+07 | 3.15E+06 | 6.13E+04 | 6.45E+05 | 0.18 | 93.7 nm | 7.53 | – | – | – | – | – | –
CCCCCCCCCCCOC(=O)CCCCCN(CCO)CCCCCCCC(=O)N(CCCCCCCC)CCCCCCCC [Compound 129, Undecyl 6-((8-(dioctylamino)-8-oxooctyl)(2-hydroxyethyl)amino)hexanoate] | 77.2% | – | – | 5.97E+09 | 4.51E+09 | 2.22E+08 | 6.65E+08 | 9.89E+06 | 5.09E+08 | 0.19 | 86.3 nm | 7.3 | 0.203 | – | highest | – | – | –
CCCCCCCCC(CCCCCCCC)OC(=O)CCCCCCCN(CCO)CCCCCCCC(=O)N(C)CCCCCCCC [Compound 145, Heptadecan-9-yl 8-((2-hydroxyethyl)(8-(methyl(octyl)amino)-8-oxooctyl)amino)octanoate] | 89.15% | – | – | 7.11E+09 | 6.50E+09 | 2.38E+08 | 5.01E+08 | 1.36E+07 | 4.25E+08 | 0.140 | 176.5 nm | 7.25 | – | – | – | 0.89 | 0.983 | 8.1E+10 h * p/s
CCCCCCCCCOC(=O)CCCCCCCN(CCO)CCCCCCCC(=O)OC(CCC)CCCCCCCC (centres unmarked) [Compound 34, dodecan-4-yl 8-((2-hydroxyethyl)(8-(nonyloxy)-8-oxooctyl)amino) octanoate] | 92.52% | – | – | 1.06E+10 | 1.48E+10 | 6.69E+08 | 2.08E+09 | 9.49E+06 | 2.40E+08 | 0.14 | 133.8 nm | 6.64 | 0.34 | – | highest | – | – | –
